Results on 1 compound are retold here after patent US20230212517A1, “METHODS FOR GENERATING HEMATOPOIETIC STEM CELLS” (The Brigham and Women's Hospital, Inc., priority 2018, published 2023).

Structures are written as SMILES.

Assay [1] has as its system E11.5 AGM cells. Put plainly: RNA-sequencing / whole transcriptome analyses of treated E11.5 AGM cells. The assay is classed as cell-based, mouse. Particulars: Venn comparison of up-regulated genes, endothelial-to-HSC transition. Here is the method:
RNA-sequencing analyses were performed to measure gene expression patterns in mouse AGM treated with cyclic strain or pharmacological modulators. Using computational algorithms, hierarchical clustering was performed of differentially expressed genes as well as measured their overrepresented biological processes and pathways. Gene expression clusters of differentially expressed genes were analyzed and their mean expression level across cell populations compared. Next, Venn comparison of up- and down-genes was constructed to analyze candidate(s) important for cyclic strain- or pharmacological modulator(s)-mediated the endothelial-to-HSC transition. Furthermore, Dnmt3b and Dnmt3a protein expressions were analyzed in nuclear fractions of mouse AGM cells using EPIQUIK methyltransferase assay kits. Data are presented as mean±s.d. unless otherwise noted. Statistical analyses were performed by paired or un-paired Student's t-tests. […]
Total RNA from E11.5 mouse AGM explant cultures was isolated (control, stretch, Yoda1 and 4αPDD conditions) with the RNAEASY MiniKit (QIAGEN). […] We mapped our sequenced read fragments to the mouse reference genome GRCm38 (ENSEMBL release 69) using the Genomic Short-Read Nucleotide Alignment program (version 2012 Jul. 20). […] Gene expression clusters of differentially expressed genes were analyzed and their mean expression level across cell populations compared. […]

For assay [2], the system named is primary transplant (recipient) mice. Put plainly: Delayed-type hypersensitivity assay in primary transplant mice. In kind it is in vivo, mouse. Particulars: primary transplant of treated E11.5 AGM. Here is the method: Pulsating blood vessels like conditions were stimulated in vitro using FLEXCELL FX-4000 cell stretching bioreactor machine. To analyze roles of pharmacological targets in regulating the endothelial-to-HSC transition, mouse embryo-derived AGM or whole mouse embryo were exposed ex vivo with biomechanical stretching, chemicals, or drugs. Next, hematopoietic colony formation assays were performed by incubating mouse AGM-derived cells in StemCell M3434 media for seven days. Serial transplantation of AGM-derived HSCs in lethally irradiated SJL mice were performed. The stem cell frequency upon biomechanical stretching was analyzed using a limiting dilution assay. To characterize properties of AGM-HSC-derived blood cells in primary transplants, percentage chimerism and reconstitution was measured using FACS, globin transcripts were analyzed using quantitative reverse transcriptase-PCR, myeloperoxidase amount was measured using PICOKINE ELISA kit, TCR-β rearrangement was analyzed using PCR for TCR-β locus, pre-immune IG detection was analyzed using Thermo-Fisher Mouse Ig Isotyping kit, and delayed-type hypersensitivity was analyzed by injecting sheep RBC (Rockland Immunochemicals) in the footpad of pre-sensitized mice. […]

The subject of assay [3] is human iPSC-derived HE cells. Put plainly: Endothelial-to-hematopoietic transition in human iPSC-derived HE cells (FACS, CD34/CD45). The assay is classed as cell-based. Particulars: Yoda1 between 6.25 and 100 μM. Here is the method:
Embryoid body and hemogenic endothelium differentiation was performed as described in (Sugimura et al. 2017; Ditadi et al. 2015). Briefly, hiPSC colonies were dissociated with 0.05% trypsin for 5 min at 37° C., washed with PBS+2% FBS, and resuspended in STEMPRO-34 medium (Invitrogen, 10639-011) supplemented with L-glutamine (2 mM), penicillin/streptomycin (10 ng/ml), ascorbic acid (1 mM), human holo-Transferrin (150 μg/ml, Sigma T0665), monothioglycerol (MTG, 0.4 mM), BMP4 (10 ng/ml), and Y-27632 (10 μM). Five million cells were seeded into 10 cm dishes (Ezsphere, Asahi Glass) for the spheroid formation. On Day 1, bFGF (5 ng/ml) and BMP4 (10 ng/ml) was added to the medium. On Day 2, the media was changed with the STEMPRO-34 supplemented with SB431542 (6 μM), CHIR99021 (3 μM), bFGF (5 ng/ml), and BMP4 (10 ng/ml). On Day 3, the medium was replaced with STEMPRO-34 supplemented with VEGF (15 ng/ml) and bFGF (10 ng/ml). On day 6, the medium was changed to STEMPRO-34 supplemented with bFGF (5 ng/ml), VEGF (15 ng/ml), interleukin (IL)-6 (10 ng/ml), IGF-1 (25 ng/ml), IL-11 (5 ng/ml), SCF (50 ng/ml) and EPO (2IU). The cells were maintained in a 5% CO2, 5% O2 and 95% humidity incubator. […]

On to `Clc1cccc(Cl)c1CSc1nnc(-c2cnccn2)s1` [Yoda1, 2-[5-[[(2,6-Dichlorophenyl)methyl]thio]-1,3,4-thiadiazol-2-yl]-pyrazine], for which, in assay [1], the Dnmt3b transcript expression result is listed as “specifically stimulate” and the Gimap6 transcript expression entry is reported as “specifically stimulate”. The “T-cell mediated immune response (footpad, sheep RBC challenge)” value in assay [2] is listed as “possess T-cell mediated immune response”. Also, the “dose dependence of the endothelial-to-hematopoietic transition” value in assay [3] is “dose dependent”. Moreover, the endothelial-to-hematopoietic transition result in assay [3] (7 days, data not shown) is reported as “induced the endothelial-to-hematopoietic transition”.
